Columns and labels:
[1] = molecular target: Recombinant human Cbl-b (aa 36-427) (Homo sapiens (Human), UniProt Q13191); experiment: Cbl-b Biochemical Assay (TR-FRET); details: read-out: TR-FRET hCbl-b IC50
In short: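 IC50 from 4-parameter fit of % inhibition (DMSO max, reference-inhibitor min), duplicate ten-point series. Compound preincubated with 6 nM Cbl-b, then Src-Zap70 (1-2.5 nM)/0.5 mM ATP reaction 60 min RT; EDTA quench with labelled UBE2D2-Ub and streptavidin-terbium, 60 min, HTRF at 520 nm.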

[2] = tested on: Phospho-Zap70 (Y-319) in Jurkat wild-type (clone E6-1) cells; experiment: Jurkat pZAP70 HTRF Assay; type: cell-based; details: Homo sapiens, anti-CD3 5 μg/ml, 3 hr, read-out: ZAP70 Jurkat EC50
[3] = tested on: Jurkat (clone E6-1) cells, NFAT luciferase reporter; experiment: Jurkat Reporter Assay (NFAT Luciferase); type: cell-based; details: Homo sapiens, anti-CD3 stimulation, 6 hr, read-out: Jurkat NFAT EC50

Sequence of Recombinant human Cbl-b (aa 36-427) (Q13191 36-427): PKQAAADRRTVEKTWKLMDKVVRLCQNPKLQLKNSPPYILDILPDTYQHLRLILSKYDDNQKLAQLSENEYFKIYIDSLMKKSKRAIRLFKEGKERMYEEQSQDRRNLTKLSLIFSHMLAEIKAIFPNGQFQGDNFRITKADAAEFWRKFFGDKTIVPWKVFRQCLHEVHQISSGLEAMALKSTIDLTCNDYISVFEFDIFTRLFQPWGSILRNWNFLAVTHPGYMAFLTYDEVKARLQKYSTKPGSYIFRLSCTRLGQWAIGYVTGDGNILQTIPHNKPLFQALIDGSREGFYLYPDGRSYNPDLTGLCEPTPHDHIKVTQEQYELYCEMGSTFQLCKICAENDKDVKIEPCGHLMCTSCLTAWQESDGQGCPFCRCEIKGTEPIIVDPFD

Row | Compound | IC50 [1] | EC50 [2] | EC50 [3]
1 | COc1cc2c(cc1CNCC1(O)CCC1)C(=O)N(c1cc(-c3ccccc3-c3nncn3C)cc(C3CC3)n1)C2 [AEM-9, 2-(6-Cyclopropyl-4-(2-(4-methyl-4H-1,2,4-triazol-3-yl)phenyl)pyridin-2-yl)-6-((((1-hydroxycyclobutyl)methyl)amino)methyl)-5-methoxyisoindolin-1-one] | ≤ 200 nM | < 200 nM | < 200 nM
2 | CCNc1cc(-c2c(-c3nncn3C)cnn2C)cc(N2Cc3c(cc(COCC4(N)CCC4)cc3C(F)(F)F)C2=O)n1 [AGF-3, 6-{[(1-Aminocyclobutyl)methoxy]methyl}-2-[6-(ethylamino)-4-[2-methyl-4-(4-methyl-1,2,4-triazol-3-yl)pyrazol-3-yl]pyridin-2-yl]-4-(trifluoromethyl)-3H-isoindol-1-one] | ≤ 200 nM | 1000 to 10000 nM | 200 to 1000 nM
3 | C[C@@H](NCC1(O)CCC1)c1cc2c(c(C(F)(F)F)c1)CN(c1cc(-c3ccccc3-c3nncn3C)cc(C3CC3)n1)C2=O (single isomer, unassigned) [AFU-1] | ≤ 200 nM | < 200 nM | < 200 nM
4 | Cn1cnnc1-c1cc(F)ccc1-c1cc(C2CC2)nc(N2Cc3ccc(CO)cc3C2=O)c1 [AGH-2, 2-{6-Cyclopropyl-4-[4-fluoro-2-(4-methyl-1,2,4-triazol-3-yl)phenyl]pyridin-2-yl}-6-(hydroxymethyl)-3H-isoindol-1-one] | ≤ 200 nM | 1000 to 10000 nM | < 200 nM
5 | Cn1cnnc1-c1cc(C#N)ccc1-c1cc(C2CC2)nc(N2Cc3ccc(CNCC4(O)CCC4)cc3C2=O)c1 [AFJ-1, 4-{2-Cyclopropyl-6-[6-({[(1-hydroxycyclobutyl)methyl]amino}methyl)-1-oxo-3H-isoindol-2-yl]pyridin-4-yl}-3-(4-methyl-1,2,4-triazol-3-yl)benzonitrile] | ≤ 200 nM | < 200 nM | < 200 nM
6 | Cn1cnnc1-c1cnn(C)c1-c1cccc(N2Cc3c(cc(CN[C@@H]4CCC[C@@H]4O)cc3C(F)(F)F)C2=O)c1 [ADO-2, 6-({[(1R,2S)-2-Hydroxycyclopentyl]amino}methyl)-2-{3-[2-methyl-4-(4-methyl-1,2,4-triazol-3-yl)pyrazol-3-yl]phenyl}-4-(trifluoromethyl)-3H-isoindol-1-one] | ≤ 200 nM | < 200 nM | < 200 nM
7 | Cn1cnnc1-c1cc(Cl)ccc1-c1cccc(N2Cc3ccc(CNCC4(O)CCCC4)cc3C2=O)c1 [AGU-10, 2-[4′-Chloro-2′-(4-methyl-1,2,4-triazol-3-yl)-[1,1′-biphenyl]-3-yl]-6-({[(1-hydroxycyclopentyl)methyl]amino}methyl)-3H-isoindol-1-one] | ≤ 200 nM | < 200 nM | < 200 nM
8 | CC(=O)c1cc2c(c(C(F)(F)F)c1)CN(c1cc(-c3ccccc3-c3nncn3C)cc(C3CC3)n1)C2=O [AFS-1, 6-Acetyl-2-{6-cyclopropyl-4-[2-(4-methyl-1,2,4-triazol-3-yl)phenyl]pyridin-2-yl}-4-(trifluoromethyl)-3H-isoindol-1-one] | ≤ 200 nM | 10000 to 50000 nM | 200 to 1000 nM
9 | CCNc1cc(-c2ccc(C#N)cc2-c2nncn2C)cc(N2Cc3c(cc(C(O)CN(C)C)cc3C(F)(F)F)C2=O)n1 (stereo not drawn) [AFR-7, 4-(2-{6-[2-(Dimethylamino)-1-hydroxyethyl]-1-oxo-4-(trifluoromethyl)-3H-isoindol-2-yl}-6-(ethylamino)pyridin-4-yl)-3-(4-methyl-1,2,4-triazol-3-yl) benzonitrile] | ≤ 200 nM | < 200 nM | < 200 nM
10 | CCOc1cc(-c2ccc(F)cc2-c2nncn2C)cc(N2Cc3ccc(CNCC4(O)CCC4)cc3C2=O)n1 [AGR-1, 2-{6-Ethoxy-4-[4-fluoro-2-(4-methyl-1,2,4-triazol-3-yl)phenyl]pyridin-2-yl}-6-({[(1-hydroxycyclobutyl)methyl]amino}methyl)-3H-isoindol-1-one] | ≤ 200 nM | < 200 nM | < 200 nM
11 | COCCNCc1cc2c(c(C(F)(F)F)c1)CN(c1cccc(-c3ccc(C#N)cc3-c3nncn3C)c1)C2=O [AEB-2, 3′-(6-(((2-Methoxyethyl)amino)methyl)-1-oxo-4-(trifluoromethyl)isoindolin-2-yl)-2-(4-methyl-4H-1,2,4-triazol-3-yl)-[1,1′-biphenyl]-4-carbonitrile] | ≤ 200 nM | < 200 nM | < 200 nM
12 | Cn1cnnc1-c1cc(F)ccc1-c1cc(C2CC2)nc(N2Cc3ccc(CNCC(C)(C)O)cc3C2=O)c1 [AHG-2, 2-{6-Cyclopropyl-4-[4-fluoro-2-(4-methyl-1,2,4-triazol-3-yl)phenyl]pyridin-2-yl}-6-{[(2-hydroxy-2-methylpropyl)amino]methyl}-3H-isoindol-1-one] | ≤ 200 nM | < 200 nM | < 200 nM
13 | CCNc1cc(-c2c(-c3nncn3C)cnn2C)cc(N2Cc3c(cc(CNCC4(OC)CCC4)cc3C(F)(F)F)C2=O)n1 [AEQ-3, 2-[6-(Ethylamino)-4-[2-methyl-4-(4-methyl-1,2,4-triazol-3-yl)pyrazol-3-yl]pyridin-2-yl]-6-({[(1-methoxycyclobutyl)methyl]amino}methyl)-4-(trifluoromethyl)-3H-isoindol-1-one] | ≤ 200 nM | < 200 nM | < 200 nM
14 | CCNc1cc(-c2ccc(F)cc2-c2nncn2C)cc(N2Cc3c(cc(COCC4(F)CCC4)cc3C(F)(F)F)C2=O)n1 [AGB-1, 2-[6-(Ethylamino)-4-[4-fluoro-2-(4-methyl-1,2,4-triazol-3-yl)phenyl]pyridin-2-yl]-6-{1[(1-fluorocyclobutyl)methoxy]methyl}-4-(trifluoromethyl)-3H-isoindol-1-one] | ≤ 200 nM | 1000 to 10000 nM | < 200 nM
15 | CCNc1cc(-c2ccc(C#N)cc2-c2nncn2C)cc(N2Cc3c(cc(CN[C@@H]4CCC[C@@H]4F)cc3C(F)(F)F)C2=O)n1 [AET-6, 4-[2-(Ethylamino)-6-[6-({[(1R,2S)-2-fluorocyclopentyl]amino}methyl)-1-oxo-4-(trifluoromethyl)-3H-isoindol-2-yl]pyridin-4-yl]-3-(4-methyl-1,2,4-triazol-3-yl) benzonitrile] | ≤ 200 nM | < 200 nM | < 200 nM
16 | CCNc1cc(-c2ccc(C#N)cc2-c2nncn2C)cc(N2Cc3c(cc([C@@H](O)CN(C)C)cc3C(F)(F)F)C2=O)n1 (single isomer, unassigned) [AGK-1] | ≤ 200 nM | 200 to 1000 nM | < 200 nM
17 | Cn1cnnc1-c1cnn(C)c1-c1cc(C2CC2)nc(N2Cc3c(cc(CNCC4(O)CCC4)cc3C(F)(F)F)C2=O)c1 [ADR-3] | ≤ 200 nM | < 200 nM | < 200 nM
18 | CCNc1cc(-c2ccc(F)cc2-c2nncn2C)cc(N2Cc3c(cc(CO[C@@H]4CCC[C@@H]4O)cc3C(F)(F)F)C2=O)n1 [AFZ-1, 2-[6-(Ethylamino)-4-[4-fluoro-2-(4-methyl-1,2,4-triazol-3-yl)phenyl]pyridin-2-yl]-6-({[(1R,2S)-2-hydroxycyclopentyl]oxy}methyl)-4-(trifluoromethyl)-3H-isoindol-1-one] | ≤ 200 nM | 200 to 1000 nM | < 200 nM
19 | Cn1cnnc1-c1cc(F)ccc1-c1cccc(N2Cc3c(cc(CNCC4(O)CCC4)cc3C(F)(F)F)C2=O)c1 [AFN-3, 2-[4′-Fluoro-2′-(4-methyl-1,2,4-triazol-3-yl)-[1,1′-biphenyl]-3-yl]-6-({[(1-hydroxycyclobutyl)methyl]amino}methyl)-4-(trifluoromethyl)-3H-isoindol-1-one] | ≤ 200 nM | < 200 nM | < 200 nM
20 | CCNc1cc(-c2c(-c3nncn3C)cnn2C)cc(N2Cc3c(cc(CN[C@@H]4CCC[C@@H]4O)cc3C(F)(F)F)C2=O)n1 [ADF-2, 2-[6-(Ethylamino)-4-[2-methyl-4-(4-methyl-1,2,4-triazol-3-yl)pyrazol-3-yl]pyridin-2-yl]-6-({[(1R,2S)-2-hydroxycyclopentyl]amino}methyl)-4-(trifluoromethyl)-3H-isoindol-1-one] | ≤ 200 nM | < 200 nM | < 200 nM
21 | CCNc1cc(-c2ccc(C#N)cc2-c2nncn2C)cc(N2Cc3c(cc(COC4CC4)cc3C(F)(F)F)C2=O)n1 [AEV-3, 4-{2-[6-(Cyclopropoxymethyl)-1-oxo-4-(trifluoromethyl) -3H-isoindol-2-yl]-6-(ethylamino)pyridin-4-yl}-3-(4-methyl-1,2,4-triazol-3-yl) benzonitrile] | ≤ 200 nM | 1000 to 10000 nM | < 200 nM
22 | Cn1cnnc1-c1cc(F)ccc1-c1cc(C2CC2)nc(N2Cc3ccc(CNCC4(O)CCC4)cc3C2=O)c1 [AFH-1, 2-{6-Cyclopropyl-4-[4-fluoro-2-(4-methyl-1,2,4-triazol-3-yl)phenyl]pyridin-2-yl}-6-({[(1-hydroxycyclobutyl)methyl]amino}methyl)-3H-isoindol-1-one] | ≤ 200 nM | < 200 nM | < 200 nM
23 | CCNc1cc(-c2ccc(C#N)cc2-c2nncn2C)cc(N2Cc3c(cccc3C(F)(F)F)C2=O)n1 [ADP-8, 4-[2-(Ethylamino)-6-[1-oxo-4-(trifluoromethyl)-3H-isoindol-2-yl]pyridin-4-yl]-3-(4-methyl-1,2,4-triazol-3-yl)benzonitrile] | ≤ 200 nM | 1000 to 10000 nM | < 200 nM
24 | Cn1cnnc1-c1cc(C#N)ccc1-c1cc(C2CC2)nc(N2Cc3c(cc(CNCCO)cc3C(F)(F)F)C2=O)c1 [AEO-2, 4-[2-Cyclopropyl-6-(6-{[(2-hydroxyethyl)amino]methyl}-1-oxo-4-(trifluoromethyl)-3H-isoindol-2-yl)pyridin-4-yl]-3-(4-methyl-1,2,4-triazol-3-yl) benzonitrile] | ≤ 200 nM | < 200 nM | < 200 nM
